Test results: patent US20120016009A1, “Optimized Methods For Delivery Of DSRNA Targeting The PCSK9 Gene” (priority 2008, published 2012)
pIC50: −log10 of the molar value. In the oligonucleotide strings, read from the 5' end, every base follows the letter of its sugar. An asterisk marks phosphorothioate; unmarked linkages are phosphodiester. Other units and linkages are bracketed, terminal groups are in braces. A string of capitals states the bases alone. d = 2'-deoxy (DNA); m = 2'-O-methyl; r = 2'-OH (RNA); {P} = phosphate; f = 2'-fluoro

Columns and labels:
[1] = system: primary human blood monocytes (hPBMC); test: TNF-alpha induction in primary human blood monocytes (hPBMC); format: cell-based; settings: for TNF-alpha induction: human primary blood monocytes; for TNF-α Induction: second word of the cell IFN-α/TNF-α Induction (Yes/No)
Method: (§1) siRNAs were tested for activation of the immune system in primary human blood monocytes (hPBMC). […] However, chemically modified versions of this sequence (AD-1a2, AD-1a3, AD-1a5, and AD-1a4) as well as AD-2a1 were negative for both IFN-alpha and TNF-alpha induction in these same assays (see Table 5, and FIGS. 13A and 13B). Thus chemical modifications are capable of dampening both IFN-alpha and TNF-alpha responses to siRNA molecules.

[2] = system: PCSK9 mRNA; test: PCSK9 silencing in primary cynomolgus monkey hepatocytes (dilution series from 30 nM, PCSK9/GAPDH mRNA); format: cell-based; settings: for pIC50: PCSK9 silencing in primary cynomolgus monkey hepatocytes, approximate IC50, read-out: Primary Cynomolgus Monkey Hepatocytes ~IC50; for IC50: primary cynomolgus monkey hepatocytes, read-out: IC50 in Cynomolgous monkey Hepatocyte [nM]s
Method: Primary cynomolgus monkey hepatocytes (cryopreserved) were obtained from In vitro Technologies, Inc. (Baltimore, Md., USA, cat No M00305) and cultured in InVitroGRO CP Medium (cat No Z99029) at 37° C. in an atmosphere with 5% CO2 in a humidified incubator.
For transfection with siRNA, primary cynomolgus monkey cells were seeded on Collagen coated plates (Fisher Scientific, cat. No. 08-774-5) at a density of 3.5×10^4 cells/well in 96-well plates and transfected directly. Transfection of siRNA (eight 2-fold dilution series starting from 30 nM) in duplicates was carried out with lipofectamine 2000 (Invitrogen GmbH, Karlsruhe, Germany, cat. No. 11668-019) as described by the manufacturer.
16 hours after transfection medium was changed to fresh InVitroGRO CP Medium with Torpedo Antibiotic Mix (In vitro Technologies, Inc, cat. No Z99000) added.
24 hours after medium change primary cynomolgus monkey cells were lysed and PCSK9 mRNA levels were quantified with the Quantigene Explore Kit (Genosprectra, Dumbarton Circle Fremont, USA, cat. No. QG-000-02) according to the protocol. PCSK9 mRNA levels were normalized to GAPDH mRNA. Normalized PCSK9/GAPDH ratios were then compared to PCSK9/GAPDH ratio of lipofectamine 2000 only control.

[3] = system: PCSK9; test: Total serum cholesterol in rats after LNP01 formulated PCSK9 siRNA (duration of action); format: in vivo, rat; settings: versus PBS or control siRNA
Method: Rats were treated via tail vein injection with 5 mg/kg of LNP01-10792 (Formulated ALDP-10792). Blood was drawn at the indicated time points (see Table 3) and the amount of total cholesterol compared to PBS treated animals was measured by standard means. Total cholesterol levels decreased at day two ˜60% and returned to baseline by day 28.
To test if acute silencing of the PCSK9 transcript by a PCSK9 siRNA (and subsequent PCSK9 protein down-regulation), would result in acutely lower total cholesterol levels, siRNA molecule AD-1a2 (AD-10792) was formulated in an LNP01 lipidoid formulation. Liposomal formulated siRNA duplex AD-1a2 (LNP01-1a2) was injected via tail vein in low volumes (˜0.2 ml for mouse and ˜1.0 ml for rats) at different doses into C57/BL6 mice or Sprague Dawley rats.
Down-modulation of total cholesterol in rats has been historically difficult as cholesterol levels remain unchanged even at high doses of HMG-CoA reductase inhibitors. […] Rats were dosed with a single injection of LNP01-a2 via tail vein at 1, 2.5 and 5 mg/kg. Liver tissue and blood were harvested 72 hours post-injection. […] The mRNA silencing was associate with an acute ˜50-60% decrease of serum total cholesterol (FIGS. 10A and 10B) lasting 10 days, with a gradual return to pre-dose levels by ˜3 weeks (FIG. 10B).
(§2) Phosphorothioate modifications at the 3′ ends of both sense and antisense strands of a dsRNA can protect against exonucleases. 2′OMe and 2′F modifications in both the sense and antisense strands of a dsRNA can protect against endonucleases. AD-1a2 (see Table 5b) contains 2′OMe modifications on both the sense and antisense strands. Experiments were performed to determine if the inherent stability (as measured by siRNA stability in human serum) or the degree or type of chemical modification (2′OMe versus 2′F or a mixture) was related to either the observed rat efficacy or the duration of silencing effects. Stability of siRNAs with the same AD-1a2 core sequence, but containing different chemical modifications were created and tested for activity in vitro in primary Cyno monkey hepatocytes. A series of these molecules that maintained similar activity as measured by in vitro IC50 values for PCSK9 silencing (Table 5b), were then tested for their stability against exo and endonuclease cleavage in human serum. Each duplex was incubated in human serum at 37° C. (a time course), and subjected to HPLC analysis. […] Sequences AD-1a3, AD-1a5, and AD-1a4, which were more heavily modified (see chemical modifications in Table 5) all had T ½'s greater than 24 hours. […] Blood was collected from animals at various days post-dose, and total cholesterol concentrations were measured. […]

[4] = system: primary human blood monocytes (hPBMC); test: IFN-alpha induction in primary human blood monocytes (hPBMC); format: cell-based; settings: for IFN-α Induction: first word of the cell IFN-α/TNF-α Induction (Yes/No); for IFN-alpha induction: human primary blood monocytes
Method: as §1

[5] = IFN-alpha activation in mice, siRNA formulated into liposomes; format: in vivo, mouse
[6] = system: PCSK9 mRNA; test: PCSK9 siRNA screening in HepG2 cells (lipofectamine 2000 transfection, PCSK9 mRNA by Quantigene, normalized to GAP-DH); format: cell-based, human
Summary of the method: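 HepG2 cells, grown in MEM with 10% fetal calf serum, antibiotics, non-essential amino acids and sodium pyruvate at 37° C. and 5% CO2, were plated at 2.0×10^4 cells/well in 96-well plates and transfected directly with siRNA using lipofectamine 2000. After 24 hours, cells were lysed and PCSK9 mRNA was measured by Quantigene and normalized to GAP-DH mRNA.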

[7] = siRNA stability in human serum at 37° C., HPLC analysis; format: in vitro ADME
Method: as §2

[8] = system: PCSK9 mRNA; test: In vitro screening of modified dsRNAs targeted to PCSK9 (Table 2b; cell type not given); format: cell-based; settings: 30 nM siRNA
Summary of the method: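 siRNA at 30 nM (single-dose screen) was transfected with lipofectamine 2000 into cells seeded at 2.0×10^4/well. After 24 h, cells were lysed and PCSK9 mRNA measured by Quantigene, normalized to GAPDH (n=8). Values are % remaining PCSK9 mRNA relative to cells given an unrelated control siRNA.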

Substance	TNF-alpha induction [1]	TNF-α Induction [1]	pIC50 [2]	decrease of total cholesterol day 2 post-dose [3]	IFN-α Induction [4]	IFN-alpha induction [4]	IFN-alpha activation in mice [5]	IC50 [2]	activity in vitro in primary monkey hepatocytes [2]	pIC50 [6]	Mean percent remaining mRNA transcript at siRNA concentration/in cell type 3 nM/HepG2 ([6]; 3 nM siRNA)	Mean percent remaining mRNA transcript at siRNA concentration/in cell type 30 nM/HepG2 ([6]; 30 nM siRNA)	T ½ in pooled human serum [7]	TNF-alpha induction ([1]; listed as AD-1a2)	Remaining mRNA in % of controls at siRNA conc. of 30 nM [8]	IFN-alpha induction ([4]; listed as AD-1a2)
AD-1a5: modified dsRNA, sense 2′ F, antisense 2′ F all Py, 5′ Phosphate; SEQ ID NO:1513/1514 (sense GCCUGGAGUUUAUUCGGAATT; antisense {P}-fUfUfCfCrGrArAfUrArArAfCfUfCfCrArGrGfCdT*dT; sense: chemistry not given here; sense strand 2'-F modified, exact pattern not fully given)	negative	No/No	9.70 to 10.15	~60%	No/No	negative	–	–	–	–	–	–	–	–	–	–
AD-1a3: modified dsRNA, AD-1a2 core sequence, Alt 2′ F, 2′ OMe both strands; SEQ ID NO:1509/1510 (chain 1 GCCUGGAGUUUAUUCGGAATT; chain 2 {P}-mUfUmCfCmGfAmAfUmAfAmAfCmUfCmCfAmGfGmCdT*dT; chain 1: sugars from the 5' end fmfmfmfmfmfmfmfmfmfdd, backbone not given here)	negative	No/No	9.70 to 10.15	~60%	No/No	negative	–	–	–	–	–	–	–	–	–	–
AD-9680: dsRNA targeting the PCSK9 gene at 3530-3548; sense SEQ ID NO:1227, antisense SEQ ID NO:1228 (sense mUmUmCmUrArGrAmCmCmUrGmUmUmUmUrGmCmUmUdT*dT; antisense rArArGmCrArArArAmCrArGrGrUrCmUrArGrArAdT*dT)	negative	No/No	9.70 to 10.15	–	No/No	negative	neither AD-1a2, nor AD-2a1 activated IFN-alpha	0.1 nM	highly active	10.00	22%	12%	–	–	–	–
AD-10792: 2′OMe modified dsRNA targeting PCSK9 at 1091-1109, SEQ ID NO:1305/1306 (chain 1 rGmCmCmUrGrGrArGmUmUmUrAmUmUmCrGrGrArAdT*dT; chain 2 rUrUrCrCrGrArAmUrArArArCrUrCmCrArGrGrCdT*dT)	–	No/No	9.70 to 10.15	~60%	No/No	–	neither AD-1a2, nor AD-2a1 activated IFN-alpha	0.1 nM	active in vitro	10.00	–	–	~7 h	negative	15%	negative
AD-1a4: modified dsRNA, sense 2′ OMe, antisense 2′ F all Py, 5′ Phosphate; SEQ ID NO:1511/1512 (sense rGmCmCmUrGrGrArGmUmUmUrAmUmUmCrGrGrArAdT*dT; antisense {P}-fUfUfCfCrGrArAfUrArArAfCfUfCfCrArGrGfCdT*dT)	negative	No/No	9.70 to 10.15	~60%	No/No	negative	–	–	–	–	–	–	–	–	–	–
